Format in all cases: functional
Assay [1] has as its system Cydia pomonella. The assay can be described thus: Insecticidal activity against Cydia pomonella (codling moth) assessed as mortality at 20 mg/kg diet topically measured after 10 days of continuous exposure (reference value: 43.3 +/- 26%). Conditions: topical, 240 h.
Assay [2] deals with Cydia pomonella. Briefly: Antifeedant activity against Cydia pomonella (codling moth) at 20 mg/kg diet topically measured after 5 days of continuous exposure (reference value: 30 +/-20.9%).
Assay [3] deals with Cydia pomonella. Briefly: Antifeedant activity against Cydia pomonella (codling moth) at 2 mg/kg diet topically measured after 10 days of continuous exposure (reference value: 30 +/-20.9%).
The test system of assay [4] is Cydia pomonella. Briefly: Insecticidal activity against Cydia pomonella (codling moth) assessed as mortality at 2 mg/kg diet topically measured after 5 days of continuous exposure (reference value: 23.3 +/- 18.5%). Conditions: topical, 120 h.
The subject of assay [5] is Cydia pomonella. The assay can be described thus: Insecticidal activity against Cydia pomonella (codling moth) at 20 mg/kg assessed as growth regulation measured as number of head capsules of larvae after 10 days of continuous exposure (reference value: 1.3 +/- 0.3%).
Assay [6] has as its system Cydia pomonella. Briefly: Antifeedant activity against Cydia pomonella (codling moth) at 2 mg/kg diet topically measured after 5 days of continuous exposure (reference value: 30 +/-20.9%).
For assay [7], the system named is Cydia pomonella. The assay can be described thus: Antifeedant activity against Cydia pomonella (codling moth) at 20 mg/kg diet topically measured after 10 days of continuous exposure (reference value: 30 +/-20.9%).
In assay [8] the test system is Cydia pomonella. The assay can be described thus: Insecticidal activity against Cydia pomonella (codling moth) assessed as mortality at 2 mg/kg diet topically measured after 10 days of continuous exposure (reference value: 43.3 +/- 26%). The note with it: topical, 240 h.
Assay [9] has as its system Cydia pomonella. The assay can be described thus: Insecticidal activity against Cydia pomonella (codling moth) assessed as mortality at 20 mg/kg diet topically measured after 5 days of continuous exposure (reference value: 23.3 +/- 18.5%). The note with it: topical, 120 h.
Assay [10] relates to Cydia pomonella. Briefly: Insecticidal activity against Cydia pomonella (codling moth) at 20 mg/kg assessed as growth regulation measured as number of head capsules of larvae after 5 days of continuous exposure (reference value: 0.3 +/- 0.3%).
The test system of assay [11] is Cydia pomonella. Briefly: Insecticidal activity against Cydia pomonella (codling moth) at 2 mg/kg assessed as growth regulation measured as number of head capsules of larvae after 5 days of continuous exposure (reference value: 0.3 +/- 0.3%).
Assay [12] deals with Cydia pomonella. The assay can be described thus: Insecticidal activity against Cydia pomonella (codling moth) at 2 mg/kg assessed as growth regulation measured as number of head capsules of larvae after 10 days of continuous exposure (reference value: 1.3 +/- 0.3%).
In assay [13] the test system is Cydia pomonella. The assay can be described thus: Insecticidal activity against Cydia pomonella (codling moth) assessed as mortality at 80 mg/kg diet topically measured after 10 days of continuous exposure (reference value: 3.3 +/- 3.3%). The note with it: topical, 240 h.
The subject of assay [14] is Cydia pomonella. Briefly: Insecticidal activity against Cydia pomonella (codling moth) assessed as mortality at 20 mg/kg diet topically measured after 5 days of continuous exposure (reference value: 0%). The note with it: topical, 120 h.
Assay [15] relates to Cydia pomonella. The assay can be described thus: Insecticidal activity against Cydia pomonella (codling moth) at 20 mg/kg assessed as growth regulation measured as number of head capsules of larvae after 5 days of continuous exposure (reference value: 0.2 +/- 0.2%).
In assay [16] the test system is Cydia pomonella. Briefly: Insecticidal activity against Cydia pomonella (codling moth) at 40 mg/kg assessed as growth regulation measured as number of head capsules of larvae after 10 days of continuous exposure Rvb = (1.5 +/- 0.2%).
Assay [17] concerns Cydia pomonella. Briefly: Antifeedant activity against Cydia pomonella (codling moth) at 40 mg/kg diet topically measured after 10 days of continuous exposure (reference value: 6.7 +/- 6.7%).
For assay [18], the system named is Cydia pomonella. Briefly: Insecticidal activity against Cydia pomonella (codling moth) assessed as mortality at 20 mg/kg diet topically measured after 10 days of continuous exposure (reference value: 3.3 +/- 3.3%). The note with it: topical, 240 h.
Assay [19] concerns Cydia pomonella. Briefly: Antifeedant activity against Cydia pomonella (codling moth) at 40 mg/kg diet topically measured after 5 days of continuous exposure (reference value: 6.7 +/- 6.7%).
Assay [20] relates to Cydia pomonella. Briefly: Antifeedant activity against Cydia pomonella (codling moth) at 80 mg/kg diet topically measured after 10 days of continuous exposure (reference value: 6.7 +/- 6.7%).
In assay [21] the test system is Cydia pomonella. The assay can be described thus: Antifeedant activity against Cydia pomonella (codling moth) at 20 mg/kg diet topically measured after 10 days of continuous exposure (reference value: 6.7 +/- 6.7%).
Assay [22] has as its system Cydia pomonella. The assay can be described thus: Insecticidal activity against Cydia pomonella (codling moth) at 40 mg/kg assessed as growth regulation measured as number of head capsules of larvae after 5 days of continuous exposure (reference value: 0.2 +/- 0.2%).
Assay [23] has as its system Cydia pomonella. The assay can be described thus: Insecticidal activity against Cydia pomonella (codling moth) at 80 mg/kg assessed as growth regulation measured as number of head capsules of larvae after 10 days of continuous exposure Rvb = (1.5 +/- 0.2%).
In assay [24] the test system is Cydia pomonella. The assay can be described thus: Insecticidal activity against Cydia pomonella (codling moth) at 80 mg/kg assessed as growth regulation measured as number of head capsules of larvae after 5 days of continuous exposure (reference value: 0.2 +/- 0.2%).
Assay [25] has as its system Cydia pomonella. The assay can be described thus: Antifeedant activity against Cydia pomonella (codling moth) at 20 mg/kg diet topically measured after 5 days of continuous exposure (reference value: 6.7 +/- 6.7%).
Assay [26] deals with Cydia pomonella. The assay can be described thus: Antifeedant activity against Cydia pomonella (codling moth) at 80 mg/kg diet topically measured after 5 days of continuous exposure (reference value: 6.7 +/- 6.7%).
The subject of assay [27] is Cydia pomonella. The assay can be described thus: Insecticidal activity against Cydia pomonella (codling moth) assessed as mortality at 40 mg/kg diet topically measured after 10 days of continuous exposure (reference value: 3.3 +/- 3.3%). Conditions: topical, 240 h.
In assay [28] the test system is Cydia pomonella. Briefly: Insecticidal activity against Cydia pomonella (codling moth) at 20 mg/kg assessed as growth regulation measured as number of head capsules of larvae after 10 days of continuous exposure Rvb = (1.5 +/- 0.2%).
Assay [29] deals with Cydia pomonella. Briefly: Insecticidal activity against Cydia pomonella (codling moth) assessed as mortality at 40 mg/kg diet topically measured after 5 days of continuous exposure (reference value: 0%). The note with it: topical, 120 h.
Assay [30] concerns Cydia pomonella. Briefly: Insecticidal activity against Cydia pomonella (codling moth) assessed as mortality at 80 mg/kg diet topically measured after 5 days of continuous exposure (reference value: 0%). Conditions: topical, 120 h.

As a reminder, the mortality is the share of the test organisms that died. For the compound `C/C=C(\C)C(=O)O[C@H]1C[C@@H](OC(C)=O)[C@@]2(C(=O)OC)CO[C@H]3[C@@H](O)[C@@](C)([C@]45O[C@@]4(C)[C@@H]4C[C@H]5O[C@@H]5OC=C[C@@]54O)[C@H]4[C@]1(CO[C@]4(O)C(=O)OC)[C@@H]32` [AZADIRACHTIN A], the mortality at 20 mg/kg with Cydia pomonella [1] and with Cydia pomonella [9] was 100% in each case. Besides, the Activity stood at 100% in the assay on Cydia pomonella [2]; 70% with Cydia pomonella [3]; 0 in the assay with Cydia pomonella [5]; 76.7% in the assay with Cydia pomonella [6]; 100% in the assay with Cydia pomonella [7]; 0 in the assay on Cydia pomonella [10]. Moreover, the Activity in the assay with Cydia pomonella [11] is given as 0; with Cydia pomonella [12], 0.3. In addition, the mortality at 2 mg/kg with Cydia pomonella [4] is 50%; in the assay on Cydia pomonella [8], 66.7%.

On to `COC(=O)[C@]1(C)CC[C@]2(C)CC[C@]3(C)C4=CC=C5C(=CC(=O)C(O)=C5C)[C@]4(C)CC[C@@]3(C)[C@@H]2C1` [PRISTIMERIN], for which the mortality at 80 mg/kg with Cydia pomonella [13] amounted to 100%; in the assay with Cydia pomonella [30] it was 90%. In addition, the mortality at 20 mg/kg was 20% in the assay on Cydia pomonella [14] and 60% in the assay with Cydia pomonella [18]. The Activity with Cydia pomonella [15] is 0; with Cydia pomonella [16], 0; in the assay with Cydia pomonella [17], 83.3%; in the assay with Cydia pomonella [19], 83.3%; in the assay on Cydia pomonella [20], 90%; with Cydia pomonella [21] it was 93.3%. Moreover, the Activity in the assay on Cydia pomonella [22] is given as 0; in the assay with Cydia pomonella [23] it was 0; in the assay with Cydia pomonella [24], 0; in the assay on Cydia pomonella [25] it was 96.7%; in the assay on Cydia pomonella [26], 90%; in the assay on Cydia pomonella [28] it was 0. Moreover, the mortality at 40 mg/kg with Cydia pomonella [27] worked out at 60%; with Cydia pomonella [29], 33.3%.

Regarding `CC1=C(O)C(=O)C=C2C1=CC=C1[C@@]2(C)CC[C@@]2(C)[C@@H]3C[C@@H](C)C(=O)C[C@]3(C)CC[C@]12C` [TINGENONE], the mortality at 80 mg/kg with Cydia pomonella [13] is 23.3%; in the assay with Cydia pomonella [30] it was 13.3%. Besides, the mortality at 20 mg/kg with Cydia pomonella [14] and in the assay with Cydia pomonella [18] was 0% throughout. The Activity in the assay with Cydia pomonella [15] stood at 0.7; in the assay with Cydia pomonella [16], 1.4; in the assay with Cydia pomonella [17], 3.3%; in the assay with Cydia pomonella [19], 10%; with Cydia pomonella [20], 93.3%; in the assay with Cydia pomonella [21], 0%. The Activity in the assay with Cydia pomonella [22] is 0.3; in the assay on Cydia pomonella [23] it was 0; with Cydia pomonella [24] it was 0; with Cydia pomonella [25], 0%; with Cydia pomonella [26], 100%; with Cydia pomonella [28] it was 3. The mortality at 40 mg/kg worked out at 10% with Cydia pomonella [27] and 3.3% in the assay on Cydia pomonella [29].
